Reference: the NIST ThermoML archive (doi:10.1016/j.tca.2006.02.036)
Numbers after ± are expanded uncertainties.

Legend:
[1] = Molar enthalpy of transition or fusion; settings: Crystal 2; DSC
[2] = Crystal 2; Adiabatic calorimetry

- Molar enthalpy of transition or fusion [1]: 0.739 ± 0.043 kcal/mol
- Triple point temperature [2]: 208 ± 0.18 K
SMILES: C1C2CC3CC1CC(C2)C3 [adamantane]
